Reference: patent publication US6740639B1, “Inclusion complees of a high potent opioid peptide, pharmaceutical compositions and method of treatment” (Council of Scientific & Industrial Research, priority 2000, dated 2004)
Non-standard residues stand in square brackets, D forms with d. No end group written: not given here. Phe(4-NO2) = N[C@@H](Cc1ccc([N+](=O)[O-])cc1)C(=O)O

Key:
[1] = LD50 in mice; conditions: mouse, in vivo, ip
Procedure: It is evident from above table that the ED50 of beta CD complex is about one third than the compound L-Tyrosyl-D-alanyl-glycyl-N-methylphenylalanyl-glycyl-isopropylamide by subcutaneous route and was one half by oral route. The LD50 of the compound L-Tyrosyl-D-alanyl-glycyl-N-methylphenylalanyl-glycyl-isopropylamide is 1000 mg/Kg i.p., and that of the complex is >10,000 mg/kg P. O. in mice.

[2] = Chronic and subacute toxicity studies (background); conditions: in vivo
[3] = Addiction liabilities and tolerance (background); assay type: in vivo; conditions: compared to morphine
[4] = test system: rhesus monkeys; experiment: 30 days toxicity study by subcutaneous route in rhesus monkey; assay type: in vivo; conditions: s.c. once daily 30 days, 3.75, 7.5 and 15 mg/kg
Procedure: (§1) 30 days toxicity study or L-Tyrosyl-D-alanyl-glycyl-N-methylphenylalanyl-glycyl-isopropylamide in rat and rhesus monkey by subcutaneous route.
(§2) Compound L-Tyrosyl-D-alanyl-glycyl-N-methylphenytalanyt-glycyl-isopropylamide dissolved in saline was given daily by subcutaneous route to groups of rats (n=10 males and 10 females in each group) and rhesus monkeys ([…] and 2 females in each group) once daily for 30 consecutive days. The dose levels used in rats were 0.0, 7.5, 15.0 and 30.0 mg/kg and in monkeys 0.0, 3.75, 7.5 and 15 mg/kg. Dose levels were selected on the basis of rat ED of 3.0 mg/kg and extrapolation thereof in the monkey.
(§3) A careful general inspection of the animals was done at least once each day Cage-side observations included changes in skin and fur, eyes and mucous membranes, general activity and behavior and also general signs of abnormal functioning of respiratory, circulators, autonomic and central nervous system and somatomotor activity. Body weights (weekly in rats initial and day 30 in monkeys), daily food (rat and monkeys) and water (rat only) consumption and parameters of hematology urinalysis and blood biochemistry of the animals was recorded All the animals were sacrificed at the end of 30 days. Necropsy was performed and histophathological examination of all the important organs and tissues were done. […]

[5] = CNS and cardiovascular effects (background); conditions: in vivo
[6] = test system: rats; experiment: 30 days toxicity study by subcutaneous route in rat; assay type: in vivo; conditions: s.c. once daily 30 days, 7.5, 15.0 and 30.0 mg/kg
Procedure: as §1, §2, §3

[7] = test system: leucine amino peptidase; conditions: enzyme hydrolysis with leucine amino peptidase; cited from earlier work
[8] = cited from earlier work; for analgesic potency compared with morphine: systemic administration; for analgesic effect: systemic route of administration
[9] = test system: μ and δ receptors; conditions: cited from earlier work

Compound: CC(C)NC(=O)CNC(=O)[C@H](Cc1ccccc1)N(C)C(=O)CNC(=O)[C@@H](C)NC(=O)[C@@H](N)Cc1ccc(O)cc1 [L-Tyrosyl-D-alanyl-glycyl-N-methylphenylalanyl-glycyl-isopropylamide]
- LD50 [1]: 1000 mg/kg
- chronic and subacute toxicity finding [2]: safe and did not produce any noticeable toxic side effects
- tolerance and addiction properties [3]: significantly reduced tolerance and addiction properties as compared to morphine
- 30-day toxicity finding [4]: safe
- CNS effects like sedation and respiratory depression [5]: virtually devoid of any major CNS effects
- cardiovascular effects [5]: virtually devoid of any significant cardiovascular effects
- 30-day toxicity finding [6]: safe

Compound: Leu-enkephalin
- half life [7]: 45 min

Compound: Tyr-Arg-Gly-Phe(pNO2)-Pro-NH2 (YRG[Phe(4-NO2)]P-NH2; N-terminus assumed; SMILES N=C(N)NCCC[C@H](NC(=O)[C@@H](N)Cc1ccc(O)cc1)C(=O)NCC(=O)N[C@@H](Cc1ccc([N+](=O)[O-])cc1)C(=O)N1CCC[C@H]1C(N)=O) [BW-443C, enkephalin analog]
- analgesic potency compared with morphine [8]: more potent analgesic than morphine

Compound: Tyr-D-Ala-Gly,-Met(o)-01 [FK-33-824]
- analgesic effect [8]: strong analgesic effect
- opioid receptor selectivity [9]: only slight preference for p-receptors

Compound: Tyr-D-Ala-Gly-Phe-MeMet-NH2 [met-kephamid]
- analgesic effect [8]: strong analgesic effect
- opioid receptor selectivity [9]: essentially non-elective for μ and δ receptors

Compound: Y[dM]GFP-NH2
- analgesic potency compared with morphine [8]: more potent analgesic than morphine
